# From BindingDB's records for patent US9233979 (Merck Sharp & Dohme, 2016)
# Target: Mitogen-activated protein kinase 1 (Homo sapiens, UniProt P28482)
# Experiment: IMAP-FP Assay
# Experimental: Activated ERK2 activity was determined in an IMAP-FP assay (Molecular Devices).
# Sequence of Mitogen-activated protein kinase 1 (P28482 whole entry): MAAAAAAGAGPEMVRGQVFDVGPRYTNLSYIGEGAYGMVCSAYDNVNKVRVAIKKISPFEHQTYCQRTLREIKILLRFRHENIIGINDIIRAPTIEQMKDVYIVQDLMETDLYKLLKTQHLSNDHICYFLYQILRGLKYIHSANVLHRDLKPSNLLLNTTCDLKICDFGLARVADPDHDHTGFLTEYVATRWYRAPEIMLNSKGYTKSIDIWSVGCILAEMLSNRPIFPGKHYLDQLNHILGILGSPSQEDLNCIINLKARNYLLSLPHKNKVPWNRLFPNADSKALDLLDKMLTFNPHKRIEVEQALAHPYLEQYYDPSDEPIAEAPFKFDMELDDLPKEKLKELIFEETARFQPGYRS
smiles,measurement,value
"COC1CN(c2n[nH]c3cc(NC(=O)N[C@H](C)c4ccc(F)cc4)ncc23)C1 [US9233979, 23]",IC50,8.69 nM
